Experimental data reported in patent US20100041597A1, “PEPTIDES TARGETED TO PROTEIN KINASE C ISOFORMS AND USES THEREOF” (priority 2005, published 2010).
Values belong to the substance of their own block, whether it stands above or below them.

Tests used:
[1] = molecular target: PKC-α (Homo sapiens, UniProt P17252); experiment: Antibody competitive binding assay with fluorescent antibody (FIG. 4); details: PRE at 20× concentration
Protocol: (§1) FIG. 4 presents data from conventional antibody competitive binding assays using PKC-α versus a representative battery of PKC isoforms (commercially available). PKC isoforms representing the three subgroups of the PKC family were assessed (classical PKCs=PKCalpha; novel PKCs=PKCdelta and epsilon; atypical PKCs=PKCzeta). Controls received the appropriate PKC isoform fluorescent antibody. Treated samples received the PRE sequence from PhGα1 (20× concentration) and the same PKC antibody. Specific affinity to PKC-α in the treated sample by the PRE will therefore decrease the amount of binding by the fluorescent antibody, represented by a decrease in fluorescent intensity in the treated sample.

[2] = molecular target: T1, PKCepsilon (Homo sapiens, UniProt Q02156); experiment: as above; details: PRE at 20× concentration
T1 construct: purchased
T1 sequence (Q02156 1-737): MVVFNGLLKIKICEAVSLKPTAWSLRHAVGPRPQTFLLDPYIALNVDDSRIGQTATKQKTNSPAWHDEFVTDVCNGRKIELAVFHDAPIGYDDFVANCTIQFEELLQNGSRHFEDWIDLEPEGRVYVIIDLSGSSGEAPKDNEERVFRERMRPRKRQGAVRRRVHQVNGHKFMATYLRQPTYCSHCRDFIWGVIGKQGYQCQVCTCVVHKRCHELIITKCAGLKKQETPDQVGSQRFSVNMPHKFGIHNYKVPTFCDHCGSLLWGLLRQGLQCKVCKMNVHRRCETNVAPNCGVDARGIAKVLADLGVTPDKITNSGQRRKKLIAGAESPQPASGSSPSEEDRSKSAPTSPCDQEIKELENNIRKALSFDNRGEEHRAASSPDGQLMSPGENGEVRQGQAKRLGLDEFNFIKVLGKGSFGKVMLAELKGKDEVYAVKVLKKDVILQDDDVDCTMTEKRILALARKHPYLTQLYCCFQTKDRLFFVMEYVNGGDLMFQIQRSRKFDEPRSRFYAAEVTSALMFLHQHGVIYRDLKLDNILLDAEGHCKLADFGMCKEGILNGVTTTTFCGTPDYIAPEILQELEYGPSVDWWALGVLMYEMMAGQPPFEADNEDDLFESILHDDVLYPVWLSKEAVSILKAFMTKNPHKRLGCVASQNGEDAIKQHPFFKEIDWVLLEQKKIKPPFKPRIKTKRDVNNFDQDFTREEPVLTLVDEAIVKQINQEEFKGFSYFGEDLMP
Protocol: as §1

[3] = tested on: PKC-β; experiment: In vitro competition with anti-PKC-β antibody, Protocol B, IMR-32 cells; format: binding, human; details: PKC-β, IMR-32, Table 8
Protocol: The ability of the peptides PRE 2 and PRE 3 (see Table 3) to interfere with the binding of a PKC-α-specific polyclonal antibody (Santa Cruz Biotechnology, Inc.) to PKC-α was determined using a modified version of the protocol outlined above in which the test peptide was added directly to the cell extract prior to electrophoresis at a concentration of either 5× or 15× the concentration of the protein applied to each well of the gel for the Western blots (20 μg).
Peptides PRE 2 and PRE 3 (see Table 3) were tested for their ability to interfere with the binding of a PKC-β-specific polyclonal antibody (Santa Cruz Biotechnology, Inc.) to PKC-β using the general protocol described in Example 3.

[4] = molecular target: T2, PKC-α (Rattus norvegicus, UniProt P05696); experiment: In vitro competition with anti-PKC-α antibody on blotted cell lysate, Protocol A, C6Cx43 cells; format: binding
T2 construct: Cell lysates from either IMR-32 (human neuroblastoma) cells or C6Cx43 cells; endogenous in cells; host or cells: C6Cx43 (rat glioma transfected with connexin 43)
Protocol: The ability of the peptides to interfere with the binding of a PKC-α-specific monoclonal antibody to PKC-α was determined using the following protocol.
Cell lysates from either IMR-32 (human neuroblastoma) cells or C6Cx43 cells (rat glioma transfected cells overexpressing connexin 43) were obtained using standard protocols and the proteins of the lysate were separated by SDS PAGE electrophoresis and electrotransferred onto a nitrocellulose membrane. […] A primary polyclonal antibody specific for PKC-α (Santa Cruz Biotechnology, Inc., CA) was then added (15 μg/ml) and the membrane incubated for a further 45 minutes. Finally, the primary antibody was detected with a secondary antibody conjugated to alkaline phosphatase using standard procedures. The intensity of the band corresponding to PKC-α was assessed by scanning and densitometry using the Gel-Pro software (Media Cybernetics) to obtain relative band intensities (average of 3 replicas). Control assays were conducted as described above except that blocking buffer without peptide was used.
The results are expressed as relative band intensity and as a percentage of the intensity of the corresponding band in the control assay (“Relative intensity (%)”). “% inhibition” relates to the percentage of the PKC-α band that is inaccessible to the antibody.

- effect on fluorescent antibody binding to PKC-α [1]: decrease in antibody binding
- effect on fluorescent antibody binding to PKCepsilon [2]: not with PKCdelta, epsilon or zeta
Substance: Ac-KDAQNLIGISI-NH2 [PRE 4, Ac-KDAQNLIGISI-NH2]

- Band Intensity ([4]; 75 μg, Table 5): 0.909
- inhibition at 0.075 mg ([4]; 75 μg, Table 5): 0%
- remaining activity at 0.075 mg ([4]; 75 μg, Table 5, read-out: Relative Intensity (%)): 98%
- Band Intensity ([4]; 300 μg, Table 5): 0.888
- inhibition at 0.3 mg ([4]; 300 μg, Table 5): 0%
- remaining activity at 0.3 mg ([4]; 300 μg, Table 5, read-out: Relative Intensity (%)): 95.8%
- Band Intensity ([4]; 600 μg, Table 5): 0.889
- inhibition at 0.6 mg ([4]; 600 μg, Table 5): 0%
- remaining activity at 0.6 mg ([4]; 600 μg, Table 5, read-out: Relative Intensity (%)): 95.9%
- Band Intensity ([4]; 3.75 mg, Table 5): 0.603
- remaining activity at 3.75 mg ([4]; 3.75 mg, Table 5, read-out: Relative Intensity (%)): 105%
- Band Intensity ([4]; 5.25 mg, Table 5): 0.599
- remaining activity at 5.25 mg ([4]; 5.25 mg, Table 5, read-out: Relative Intensity (%)): 105%
- Band Intensity ([4]; 7.5 mg, Table 5): 0.589
- inhibition at 7.5 mg ([4]; 7.5 mg, Table 5): 0%
- remaining activity at 7.5 mg ([4]; 7.5 mg, Table 5, read-out: Relative Intensity (%)): 103%
Substance: Ac-AKGIQEVKGGDAQNLIGISI-NH2 [PRE 3]
- Band Intensity ([3]; 100 μg): 0.0
- Inhibition (%) ([3]; 100 μg): 100.0%
- Relative Intensity (%) ([3]; 100 μg): 0.0%
- Band Intensity ([3]; 200 μg): 0.0
- Inhibition (%) ([3]; 200 μg): 100.0%
- Relative Intensity (%) ([3]; 200 μg): 0.0%
- Band Intensity ([3]; 300 μg): 0.0
- Inhibition (%) ([3]; 300 μg): 100.0%
- Relative Intensity (%) ([3]; 300 μg): 0.0%
